No end group written: not given here.
test system: antiserum anti-IIINys (polyclonal, directed against SEQ ID No. 2); experiment: Competitive ELISA, specificity of the antiserum anti IIINys vis-à-vis different peptides; assay type: binding, rabbit; conditions: biotinylated IIINys coated on plate, competitor peptide in solution
Procedure: FIG. 4 illustrates the specificity of the polyclonal antibodies prepared vis-à-vis the IIINys, with respect to other synthetic peptides. B/B0 represents the ratio between the quantity of anti-IIINys antibodies fixed to the antigen fixed (“coated”) onto the plate in the presence of competitor compound (B) and in the absence of competitor compound (B0).
Rabbits were injected by intra-peritoneal route with the peptide conjugated to KLH emulsified with Freund's complete adjuvant. This operation was repeated 3 times over three months using the same peptide with Freund's incomplete adjuvant. After each injection a sample of rabbit blood was taken. This blood was left to coagulate for 30 minutes and the whole sample was centrifuged for 10 minutes at 2500 rpm in order to recover the serum. Ten days after the last injection, the rabbits were sacrificed and all the blood was recovered. Each serum sample was titrated by ELISA technique in the presence of the synthetic peptide. The antiserum with the best titre was selected for the finalization of the competitive ELISA (Harlow and Lane, 1988a).
The peptide conjugated to the biotin diluted with the coating buffer is adsorbed on plates avidinated for 2 hours at ambient temperature. After washing, 50 μl of antisera diluted to the optimum titre are added to 50 μl of standard (synthetic peptide diluted in buffer) or to 50 μl of samples to be assayed and are left to incubate overnight at 4° C. After washing, 100 μl of secondary antibodies coupled to the peroxidase directed against the rabbit immunoglobulins are added over one hour at ambient temperature. The wells are washed and 100 μl of substrate (TMB) are added. The reaction is stopped with 100 μl of H2SO4.
The antiserum selected was tested vis-à-vis different peptides according to the ELISA method described previously in order to verify its specificity (FIG. 4). The peptides tested are: the peptide IIINys of sequence SEQ ID No. 2 (the immunogenic peptide), the peptide of sequence SEQ ID No. 3 (the peptide IIINys with only the first tyrosine nitrosylated), the peptide of sequence SEQ ID No. 4 (the peptide IIINys with only the second tyrosine nitrosylated), the peptide of sequence SEQ ID No. 9 (the peptide IIINys with an additional amino acid on the N-terminal side), the peptide of sequence SEQ ID No. 8 (the peptide IIINys with its tyrosines non nytrosylated), 3-nitrotyrosine (FIG. 2), with the nitrosylated BSA of sequence SEQ ID No. 11.

| Compound | competition with the peptide IIINys (SEQ ID No. 2) adsorbed on the plate for the antiserum (B/B0, FIG. 4) |
| --- | --- |
| N[C@@H](Cc1ccc(O)c([N+](=O)[O-])c1)C(=O)O [3-nitrotyrosine, reference compound] | not capable of entering into competition |
| PQY*DSY*DVKSG (PQYDSYDVKSG; not fully specified (residues 3, 6); printed as PQY*DSY*DVKSG) [SEQ ID No. 9, the peptide IIINys with an additional amino acid on the N-terminal side, reference compound] | not capable of entering into competition |
| QY*DSYDVKSG [SEQ ID No. 3, the peptide IIINys with only the first tyrosine nitrosylated] | less affinity than for the peptide IIINys |
| QYDSY*DVKSG [SEQ ID No. 4, the peptide IIINys with only the second tyrosine nitrosylated] | less affinity than for the peptide IIINys |
| QYDSYDVKSG [SEQ ID No. 8, the peptide IIINys with its tyrosines non nitrosylated] | not capable of entering into competition |

Source: patent US20100233737A1, “MARKER SPECIFIC TO AN OXIDATIVE DEGRADATION OF TISSUES CONTAINING TYPE III COLLAGEN, MEANS AND METHODS AND KITS FOR THE DIAGNOSIS, MONITORING OR PROGNOSIS OF PATHOLOGIES TARGETED BY THIS MARKER” (priority 2006, published 2010)
